Assay results as given in BindingDB's records for doi:10.1074/jbc.M114.566729 (University of Colorado School of Medicine, 2014).

Target: T1, Eyes absent homolog 2 [253-538] (Human, UniProt O00167)
T1 construct: 253-538
T1 sequence (O00167 whole entry): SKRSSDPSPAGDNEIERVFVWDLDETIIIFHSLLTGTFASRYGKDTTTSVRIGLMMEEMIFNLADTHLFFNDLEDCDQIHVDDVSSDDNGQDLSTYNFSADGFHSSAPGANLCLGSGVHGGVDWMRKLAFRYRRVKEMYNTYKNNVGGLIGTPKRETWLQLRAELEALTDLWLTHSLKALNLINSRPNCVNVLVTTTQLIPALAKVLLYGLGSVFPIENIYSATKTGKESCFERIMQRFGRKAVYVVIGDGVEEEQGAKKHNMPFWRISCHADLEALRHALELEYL
Test: Eya Phosphatase Assay
Details: pH 6.5; 25 °C
Description: Eya activity was measured in 50-μl reactions using black, 96-well, half-volume microtiter plates (Greiner Bio-one) with the substrate OMFP (3-O-methylfluoresceinphosphate, Sigma-Aldrich), which is converted to a fluorescent product OMF upon dephosphorylation. […] Reactions were started by the addition of OMFP, preceded for 1 h at room temperature followed by terminating the reaction with the addition of 75mMEDTA.

In the case of O=C(N/N=C/c1ccc(Sc2ccccn2)s1)c1cccc(F)c1 [NCGC00249327], the IC50 is reported as 2900 nM.
